Counter-ions that a name gives are not always drawn. Like-named read-outs stand apart in the source and are kept apart here.

In experiment [1] the target is T1, SARS-CoV-2 PLpro (nsp3 1564–1878) (Severe acute respiratory syndrome coronavirus 2, UniProt P0DTD1). The experiment is described as follows: biochemical. The conditions noted are these: read-out: % of control remaining. Also noted: FRET-quenched peptide (Pro3) cleavage by PLpro, 10 min pre-incubation, slope over 20 min, normalised to no-compound control.
Experiment [2] addresses T1, SARS-CoV-2 PLpro (nsp3 1564–1878). The experiment is described as follows: biochemical. Also noted: FRET-quenched peptide (Pro3) cleavage by PLpro, 10 min pre-incubation, slope over 20 min, normalised to no-compound control. The conditions noted are these: read-out: % of control remaining. This is another data set of the same source.

In the case of `O=C(N[C@H]1CCS[C@H]2CCC[C@@H](C(=O)O)N2C1=O)[C@@H](S)Cc1ccccc1` [Omapatrilat], in experiment [1] (Well no.=8466, low concentration screen), the remaining activity at 1.25 µM worked out at 99.9%. Also, the remaining activity at 3.75 µM in experiment [2] (Well no.=8466, high concentration screen) turned out to be 95%.
For the compound `CS(=O)(=O)n1cc2c(n1)CN([C@H]1CO[C@H](c3cc(F)ccc3F)[C@@H](N)C1)C2` [Omarigliptin (MK-3102)], the remaining activity at 1.25 µM in experiment [1] (Well no.=8824, low concentration screen) was 98.1%. For the same compound, the remaining activity at 3.75 µM in experiment [2] (Well no.=8824, high concentration screen) was found to be 96.5%.
Regarding `COc1ccc2[nH]c([S+]([O-])Cc3ncc(C)c(OC)c3C)nc2c1` (stereo not shown) [Omeprazole], the remaining activity at 1.25 µM in experiment [1] (Well no.=2051, low concentration screen) was determined as 101%. In addition, the remaining activity at 3.75 µM in experiment [2] (Well no.=2051, high concentration screen) is 101%.
For `O=Cc1cn(Cc2ccc(Cl)cc2)c2ccccc12` [Oncrasin-1], in experiment [1], the remaining activity at 1.25 µM was 95.2%. For the same compound, in experiment [2], the remaining activity at 3.75 µM is 101%.
As for `Cc1nccn1CC1CCc2c(c3ccccc3n2C)C1=O` (stereo not shown) [Ondansetron], the remaining activity at 1.25 µM in experiment [1] (Well no.=2104, low concentration screen) came to 102%. The remaining activity at 3.75 µM in experiment [2] (Well no.=2104, high concentration screen) worked out at 102%.
Consider `OCCN1CCN(CCCN2c3ccccc3C=Cc3ccccc32)CC1` [Opipramol dihydrochloride], for which, in experiment [1] (Well no.=5510, low concentration screen), the remaining activity at 1.25 µM came out at 97.5%. For the same compound, the remaining activity at 3.75 µM in experiment [2] (Well no.=5510, high concentration screen) came to 101%.
In the case of `COC[C@H](NC(=O)c1cnc(C)s1)C(=O)N[C@@H](COC)C(=O)N[C@@H](Cc1ccccc1)C(=O)[C@@]1(C)CO1` [Oprozomib (ONX 0912)], in experiment [1] (Well no.=4976, low concentration screen), the remaining activity at 1.25 µM came out at 90.1%. Also, the remaining activity at 3.75 µM in experiment [2] (Well no.=4976, high concentration screen) was 89.5%.
With `COc1ccc(-c2cccc(C(=O)N(C)C)c2)cc1S(=O)(=O)Nc1cccc(NCCNC(=O)c2cccc(C)c2)c1` [Orexin 2 Receptor Agonist], the remaining activity at 1.25 µM in experiment [1] (Well no.=6951, low concentration screen) worked out at 105%. Moreover, the remaining activity at 3.75 µM in experiment [2] (Well no.=6951, high concentration screen) stood at 103%.
As for `CCc1c(C(=O)NCCc2ccc(N3CCCCC3)cc2)[nH]c2ccc(Cl)cc12` [Org 27569], the remaining activity at 1.25 µM in experiment [1] (Well no.=6238, low concentration screen) came to 103%. In addition, the remaining activity at 3.75 µM in experiment [2] (Well no.=6238, high concentration screen) stood at 105%.
On to `C=C1C(=O)[C@]23[C@H](O)[C@H]1CC[C@H]2[C@@]12CO[C@]3(O)[C@@H](O)[C@@H]1C(C)(C)CC[C@@H]2O` [Oridonin], for which the remaining activity at 1.25 µM in experiment [1] (Well no.=3255, low concentration screen) amounted to 101%. Moreover, the remaining activity at 3.75 µM in experiment [2] (Well no.=3255, high concentration screen) was 103%.
Consider `CCCCCCCCCCC[C@@H](C[C@@H]1OC(=O)[C@H]1CCCCCC)OC(=O)[C@H](CC(C)C)NC=O` [Orlistat], for which, in experiment [1] (Well no.=7366, low concentration screen), the remaining activity at 1.25 µM was found to be 101%. Further, the remaining activity at 3.75 µM in experiment [2] (Well no.=7366, high concentration screen) amounted to 101%.
`Cc1ncc([N+](=O)[O-])n1CC(O)CCl` (stereo not shown) [Ornidazole]: the remaining activity at 1.25 µM in experiment [1] (Well no.=4939, low concentration screen) was 101%. In experiment [2] (Well no.=4939, high concentration screen), the remaining activity at 3.75 µM was found to be 97.6%.
With `O=C(O)c1cc(=O)[nH]c(=O)[nH]1` [Orotic acid (6-Carboxyuracil)], the remaining activity at 1.25 µM in experiment [1] (Well no.=8146, low concentration screen) came to 105%. Besides, the remaining activity at 3.75 µM in experiment [2] (Well no.=8146, high concentration screen) came out at 98.3%.
For `O=C(O)c1cc(=O)[nH]c(=O)[nH]1` [Orotic acid], the remaining activity at 1.25 µM in experiment [1] (Well no.=6207, low concentration screen) worked out at 108%. In addition, in experiment [2] (Well no.=6207, high concentration screen), the remaining activity at 3.75 µM is 99.7%.
Consider `O=C(Nc1ccc(O)cc1)c1ccccc1O` [Osalmid], for which, in experiment [1] (Well no.=8152, low concentration screen), the remaining activity at 1.25 µM was found to be 100%. Also, the remaining activity at 3.75 µM in experiment [2] (Well no.=8152, high concentration screen) turned out to be 100%.
As for `COc1ccc2ccc(=O)oc2c1CC=C(C)C` [Osthole], the remaining activity at 1.25 µM in experiment [1] (Well no.=3440, low concentration screen) amounted to 91.5%; in experiment [1] (Well no.=8333, low concentration screen) it was 98.6%. Also, the remaining activity at 3.75 µM in experiment [2] (Well no.=3440, high concentration screen) is 88.2%; in experiment [2] (Well no.=8333, high concentration screen), 94.5%.
For the compound `CCNC1(C(N)=O)CCN(c2ncnc3c2nc(-c2ccccc2Cl)n3-c2ccc(Cl)cc2)CC1` [Otenabant (CP-945598) HCl], the remaining activity at 1.25 µM in experiment [1] (Well no.=8494, low concentration screen) was determined as 103%. Further, the remaining activity at 3.75 µM in experiment [2] (Well no.=8494, high concentration screen) was 108%.
With `CCNC1(C(N)=O)CCN(c2ncnc3c2nc(-c2ccccc2Cl)n3-c2ccc(Cl)cc2)CC1` [Otenabant], the remaining activity at 1.25 µM in experiment [1] (Well no.=8393, low concentration screen) is 93.1%. Further, in experiment [2] (Well no.=8393, high concentration screen), the remaining activity at 3.75 µM stood at 87.6%.
Turning to `CCCCCCCCOc1ccccc1C(=O)Nc1ccc(C(=O)OCC[N+](C)(CC)CC)cc1` [Otilonium (bromide)], in experiment [1] (Well no.=6315, low concentration screen), the remaining activity at 1.25 µM stood at 103%. The remaining activity at 3.75 µM in experiment [2] (Well no.=6315, high concentration screen) amounted to 97.2%.

(Values after paper PMC8286840, “Identifying SARS-CoV-2 antiviral compounds by screening for small molecule inhibitors of Nsp3 papain-like protease” (Biochemical Journal, 2021).)
